Results as given in patent US9446147B2, “Membrane stabilizing compositions and methods” (The Ohio State University, priority 2011, dated 2016).

Tests used:
[1] = lyophilization and rehydration of calcein-loaded LUVs (contents loss, DLS, cryo-TEM); type: physicochemical; details: used in place of cholesterol glycopolymer 8 in DPPC or hydrogenated ePC LUVs
Description: (§1) The anhydrobiotic membrane preservation properties of the trehalose polymers on supported lipid bilayers (SLBs) were tested. […] Moreover, lyophilized calcein-loaded trehalose-polymer vesicles could be rehydrated without contents loss and maintenance of vesicle size distribution. The cryo-preservative effects of trehalose and other sugars on proteins and membrane structures has been known for some time, though high solution concentrations are required; here we find that preservative properties at mole ratios of about 10% to about 30%. This preservative property permits long-term anhydrous storage of reagents without compromising therapeutic effect. Thus, membrane-anchored polysaccharides may be a useful biotechnology tool for production of systemic drug carriers that are stable to attack from serum proteins, dehydration and freeze-drying.
Sugar solutions (10:1 sugar:lipid) are known to protect LUVs from contents loss and fusion upon lyophilization and rehydration. It was find that covalent presentation of polymeric trehalose on multiple lipid anchors confers significant membrane anhydrobiotic and cryo-protection at sugar:lipid ratios of 0.1-0.3. […] LUVs containing phospholipid glycodimer 7 and phospholipid glycopolymer 9 readily deposited, possibly by virtue of higher membrane fluidity.

[2] = dehydration-rehydration of supported lipid bilayers (SLBs), microscopy and FRAP; type: physicochemical; details: supported lipid bilayers on glass
Description: as §1
FIGS. 10A and 10B are photomicrographs of supported lipid bilayers containing (A) phospholipid dimer 7 or (B) phospholipid polymer. The mole percent is as indicated. The top rows of (A) and (B) show freshly formed SLBs; whereas the bottom rows show SLBs after drying and rehydration. The photos were taken at 10× magnification and the scale bar is 100 μm. FIGS. 10C and 10D show FRAP containing SLBs with 10% phospholipid polymer before and after dehydration, respectively. These photos were taken at 40× magnification and the scale bar is 40 μm.

[3] = contents release assay of calcein-loaded vesicles in fetal bovine serum; type: in vitro ADME; details: vesicles of 80% DPPC and 20% dimer
Source text: […] Vesicle stabilization by the glycolipid derivatives was strongly affected by degree of oligomerization and solubility. […] Though there is clearly an advantage to structures larger than a dimer, larger oligomer or polymers may be limited by their ability to incorporate into the lipid membrane. Thus, it was difficult to achieve mole percent incorporation levels higher than 10% for phospholipid glycopolymer 9 and 30% for cholesterol glycopolymer 8.

| contents loss and fusion after lyophilization and rehydration [1] | contents loss upon exposure to serum [3] | Compound | protection of SLBs from delamination on drying/rehydration [2] |
| --- | --- | --- | --- |
| total contents loss and extensive fusion |  | CC(C)CCC[C@@H](C)[C@H]1CC[C@H]2[C@@H]3CC=C4C[C@@H](O)CC[C@]4(C)[C@H]3CC[C@]12C [cholesterol] |  |
|  | greatly minimized | trehalose cholesterol thioglycolate thioether dimer | protect supported lipid bilayers from delamination upon drying |
